The test system of test [1] is H22. Nature of the test: Antitumor activity against mouse H22 cells xenografted in kunming mouse assessed as inhibition of tumor growth at 150 mg/kg, ip for 7 days. Type of test: functional. As to conditions: 168 h, route intraperitoneal.
Test [2] has as its system BGC-823. Briefly: Cytotoxicity against human BGC823 cells after 24 hrs by MTT assay. Conditions: BGC-823, 24 h. Type of test: functional, cell-based. Background: Formazan colour is commonly taken as a measure of viable cells.
Test [3] concerns SH-SY5Y. Briefly: Cytotoxicity against human SH-SY5Y cells after 24 hrs by MTT assay. Format: functional, cell-based.
Test [4] has as its system HeLa. Briefly: cells. As to conditions: Homo sapiens, 24 h.
Description: Cytotoxicity against human HeLa cells after 24 hrs by MTT assay
Test [5] concerns HepG2. Briefly: cells. Conditions: Homo sapiens, HepG2, 24 h.
Description: Cytotoxicity against human HepG2 cells after 24 hrs by MTT assay
The nature of test [6]: Cytotoxicity against human HELF cells after 24 hrs by MTT assay. Type of test: cell-based.
In test [7] the test system is H22. Briefly: animal or person. Conditions: Mus musculus, H22, ip, 168 h, read-out: INH.
Description: Antitumor activity against mouse H22 cells xenografted in kunming mouse assessed as inhibition of tumor growth at 15 mg/kg, ip for 7 days

The structures appear in SMILES notation.

The IC50 is the concentration that gives 50% inhibition. Low values mean greater potency, high ones weaker potency.

On to `C[C@H]1[C@H](C)CC[C@]2(C(=O)O)CC[C@]3(C)C(=CC[C@@H]4[C@@]5(C)CC[C@H](O)C(C)(C)[C@@H]5CC[C@]43C)[C@H]12` [URSOLIC ACID], for which the inhibition in vivo at 150 mg/kg in test [1] was 36.2%. Moreover, the IC50 in test [2] was found to be 66.4 µM; in test [3], 54.6 µM; in test [4], 33.1 µM; in test [5] it was 68.8 µM; in test [6], 21.3 µM.

Turning to `CCOC(=O)[C@]12CC[C@@H](C)[C@H](C)[C@H]1C1=CC[C@@H]3[C@@]4(C)CC[C@H](O)C(C)(C)[C@@H]4CC[C@@]3(C)[C@]1(C)CC2`, the concentration for half-maximal inhibition (IC50) amounted to 69.3 µM in test [2]; 66.3 µM in test [3]; 29.2 µM in test [4]; 70.8 µM in test [5]; 81.9 µM in test [6].

Consider `CC(=O)O[C@H]1CC[C@]2(C)[C@H]3CC=C4[C@@H]5[C@@H](C)[C@H](C)CC[C@]5(C(=O)N5CCN(CCOCCO)CC5)CC[C@@]4(C)[C@]3(C)CC[C@H]2C1(C)C`, for which the IC50 was found to be 12.8 µM in test [2]; 9.51 µM in test [3]; 6.28 µM in test [4]; 15.3 µM in test [5]; 38.9 µM in test [6].

Regarding `C[C@H]1[C@H](C)CC[C@]2(C(=O)N3CCN(CCO)CC3)CC[C@]3(C)C(=CC[C@@H]4[C@@]5(C)CC[C@H](O)C(C)(C)[C@@H]5CC[C@]43C)[C@H]12`, the half-inhibitory concentration (IC50) in test [2] was 98.3 µM; in test [3], over 100 µM; in test [4], 52.3 µM; in test [5], over 100 µM; in test [6] it was 32.8 µM.

For `C[C@H]1[C@H](C)CC[C@]2(C(=O)OCCCCO[N+](=O)[O-])CC[C@]3(C)C(=CC[C@@H]4[C@@]5(C)CC[C@H](O)C(C)(C)[C@@H]5CC[C@]43C)[C@H]12`, the IC50 in test [2], in test [3], in test [4], in test [5] and in test [6] was over 100 µM throughout.

With `O=P1(N(CCCl)CCCl)NCCCO1` (configuration not stated) [CYCLOPHOSPHAMIDE ANHYDROUS], in test [7], the inhibition in vivo at 15 mg/kg amounted to 55%.
